# Laboratory results published in patent US11034650B2, “Compounds useful for treating a Mannheimia haemolytica or Histophilus somni infection” (Intervet Inc., priority 2016, dated 2021).
# Tests used:
# Assay type in all cases: cell-based
# [1] = test system: Mannheimia haemolytica MH 13093 (XB0472-6014.1, BRD field isolate); assay: MIC, broth-microdilution (CLSI VET01-A4), strain MH 13093; conditions: Mannheimia haemolytica strain MH 13093, broth-microdilution; unit assumed
# Procedure: (§1) For example, representative compounds were tested against ***, Mannheimia haemolytica and Pasteurella multocida, using the conventional broth-dilution assay.
# (§2) The Minimum inhibitory concentrations (MIC) of compounds according to the invention for a number of veterinary bacterial pathogens were determined by the broth-microdilution method according to CLSI document VET01-A4.
# (§3) Microdilution trays containing a doubling dilution series of the test compound were used for the tests. The MIC results were interpreted according to the CLSI documents VET01-S3. The lowest concentration of compound at which no visible growth (i.e. no turbidity) detected by the unaided eye was recorded as the MIC.
# [2] = test system: Pasteurella multocida PM 6267 (P 2225 (L386), reference strain, mouse infection strain); assay: MIC, broth-microdilution (CLSI VET01-A4), strain PM 6267; conditions: Pasteurella multocida strain PM 6267, broth-microdilution; unit assumed
# Procedure: as §1, §2, §3
# [3] = test system: Mannheimia haemolytica MH 6374 (ATCC 33396, reference strain); assay: MIC, broth-microdilution (CLSI VET01-A4), strain MH 6374; conditions: Mannheimia haemolytica strain MH 6374, broth-microdilution; unit assumed
# Procedure: as §1, §2, §3
# [4] = test system: Pasteurella multocida PM 12080 (IV102277-0093, BRD field isolate); assay: MIC, broth-microdilution (CLSI VET01-A4), strain PM 12080; conditions: Pasteurella multocida strain PM 12080, broth-microdilution; unit assumed
# Procedure: as §1, §2, §3
# [5] = test system: Mannheimia haemolytica MH 10720 (154, BRD field isolate); assay: MIC, broth-microdilution (CLSI VET01-A4), strain MH 10720; conditions: Mannheimia haemolytica strain MH 10720, broth-microdilution; unit assumed
# Procedure: as §1, §2, §3
# [6] = test system: Pasteurella multocida PM 10775 (080130003051, BRD field isolate); assay: MIC, broth-microdilution (CLSI VET01-A4), strain PM 10775; conditions: Pasteurella multocida strain PM 10775, broth-microdilution; unit assumed
# Procedure: as §1, §2, §3
# [7] = test system: Mannheimia haemolytica MH 12587 (1071, BRD field isolate, macrolide-resistance: erm+, E+); assay: MIC, broth-microdilution (CLSI VET01-A4), strain MH 12587; conditions: Mannheimia haemolytica strain MH 12587, broth-microdilution; unit assumed
# Procedure: as §1, §2, §3
# [8] = test system: Mannheimia haemolytica MH 6357 (M7/2, reference strain, cattle infection strain); assay: MIC, broth-microdilution (CLSI VET01-A4), strain MH 6357; conditions: Mannheimia haemolytica strain MH 6357, broth-microdilution; unit assumed
# Procedure: as §1, §2, §3
# [9] = test system: Mannheimia haemolytica MH 13065 (XB0446-6003.9, BRD field isolate); assay: MIC, broth-microdilution (CLSI VET01-A4), strain MH 13065; conditions: Mannheimia haemolytica strain MH 13065, broth-microdilution; unit assumed
# Procedure: as §1, §2, §3
MIC PM 6267 [2] [µg/mL],MIC PM 12080 [4] [µg/mL],MIC PM 10775 [6] [µg/mL],Compound,MIC MH 13093 [1] [µg/mL],MIC MH 6374 [3] [µg/mL],MIC MH 10720 [5] [µg/mL],MIC MH 12587 [7] [µg/mL],MIC MH 6357 [8] [µg/mL],MIC MH 13065 [9] [µg/mL]
0.4,0.8,≤ 0.1,CC[C@H](C)[C@H](NC(=O)c1ccc(C#Cc2ccc(CNCc3ccccc3)cc2)cc1)C(=O)NO [Compound 126],1.6,1.6,0.4,1.6,3.1,1.6
≤ 0.1,0.8,≤ 0.1,C=CCNCc1ccc(C#Cc2ccc(C(=O)N[C@H](C(=O)NO)C(C)C)cc2)cc1 [Compound 94],1.6,0.8,0.8,1.6,12.5,0.8
≤ 0.1,0.4,≤ 0.1,CC(C)[C@H](NC(=O)c1ccc(C#Cc2ccc(CNCC(C)(C)C)cc2)cc1)C(=O)NO [Compound 95],3.1,3.1,0.8,6.3,1.6,3.1
3.1,6.3,0.8,CC(C)[C@H](NC(=O)c1ccc(C#Cc2cccc(CNCc3ccccc3)c2)cc1)C(=O)NO [Compound 40],6.3,3.1,6.3,12.5,6.3,6.3
0.4,1.6,≤ 0.1,CC(C)[C@H](NC(=O)c1ccc(C#Cc2ccc(CNCc3ccc(N(C)C)cc3)cc2)cc1)C(=O)NO [Compound 108],3.1,1.6,1.6,3.1,3.1,1.6
3.1,6.3,0.8,C=CCNCc1cccc(C#Cc2ccc(C(=O)N[C@H](C(=O)NO)C(C)C)cc2)c1 [Compound 26],12.5,6.3,3.1,25,12.5,12.5
≤ 0.1,0.8,≤ 0.1,O=C(N[C@@H](CO)C(=O)NO)c1ccc(C#Cc2ccc(CNCc3ccccc3)cc2)cc1 [Compound 85],3.1,0.8,1.6,3.1,3.1,1.6
≤ 0.1,≤ 0.1,≤ 0.1,CC(C)[C@H](NC(=O)c1ccc(C#Cc2ccc(CN3CCOCC3)cc2)cc1)C(=O)NO [Compound 98],1.6,1.6,0.4,1.6,0.8,1.6
0.4,0.8,≤ 0.1,CC(C)[C@H](NC(=O)c1ccc(C#Cc2ccc(CN3CCc4ccccc4C3)cc2)cc1)C(=O)NO [Compound 102],6.3,3.1,0.8,12.5,3.1,3.1
0.4,3.1,0.2,CCN(CC)Cc1ccc(C#Cc2ccc(C(=O)N[C@@H](CO)C(=O)NO)cc2)cc1 [Compound 76],25,25,6.3,25,12.5,12.5
0.4,≤ 0.1,–,CC(C)(C(NC(=O)c1ccc(C#Cc2ccc(CNC3CC3)cc2)cc1)C(=O)NO)[N+](=O)[O-] (racemic) [Compound 218],0.4,0.4,≤ 0.1,0.8,0.4,0.4
0.2,0.4,≤ 0.1,CC[C@H](C)[C@H](NC(=O)c1ccc(C#Cc2ccc(CNCc3ccc(C)cc3)cc2)cc1)C(=O)NO [Compound 189],3.1,3.1,–,3.1,1.6,1.6
